Columns and labels:
[1] = tested on: Mycobacterium smegmatis mc^2 (ATCC 700084); test: Evaluation of mycobacterium-protective activity in freeze-dried condition; assay type: cell-based; details: for Numbers of live bacterial cells (relative numbers): Mycobacterium smegmatis freeze-dried with 6% aqueous solution (final concentration 3%), test sample 3 (FD) = 1
Protocol: Using test samples 1 to 5 containing mycobacterium prepared in the following manner, microorganism-protective activity with trehalose or 4-trehalosamine in a freeze-dried condition was evaluated.
Frozen stock of mycobacterium ([…] Mycobacterium smegmatis mc^2 (American Type Culture Collection (ATCC) 700084)) was inoculated in 10 mL of Middlebrook 7H9 culture medium (manufactured by Becton, Dickinson and Company) and cultured at 37° C. for 72 hours while shaking it at 220 rpm. After culture, it was centrifuged at 3,000×g for 5 minutes, washed once with 10 mL of water, and then suspended in 10 mL of water, thus obtaining mycobacterium suspension. 50 μL of water was added to and mixed with 50 μL of this mycobacterium suspension, and the mixture was left to stand at 4° C. for 20 hours, preparing control (NF).
After mycobacterium suspension was prepared in a similar manner to test sample 1, 50 μL of 6% aqueous solution of trehalose was added to and mixed with 50 µL of the mycobacterium suspension, and the mixture was frozen at −80° C. for 10 minutes. It was then freeze-dried for 20 hours with a freeze dryer (FLEXI-DRY, manufactured by FTS systems INC., Warminster) connected to a vacuum pump (P65D, manufactured by PHIL Sato Vac INC.), preparing freeze-dried product (TRH) of mycobacterium with TRH.
Freeze-dried product (4TA) of mycobacterium with 4TA was obtained in a similar manner to the preparation method of test sample 4 except that trehalose was changed to 4-trehalosamine (4TA) in the preparation method of test sample 4.
For test samples 1 and 2, serial suspensions were made by diluting them to 1/10 with water. […]
Wells in which the number of colonies was measurable were selected and the numbers (relative numbers) of live bacterial cells per well on test samples 1, 2, 4, and 5 when the number of live bacterial cells per well on test sample 3 (FD) was “1” were calculated in consideration of the dilution concentrations of those test samples.

human trehalase = test: Degradation by human trehalase (cell extract liquids of KP4 and KP4-TREH, LC-MS persistence rate); assay type: in vitro ADME; details: 20 μg/mL, 37° C., up to 24 hours; for degradation by cell extract liquid of human pancreatic cancer cells KP4: control cells
Protocol: In order to perform a degradation experiment with human trehalase, high expression strains of the same were made.
This plasmid was introduced into various kinds of cultured human cells using Viafect (manufactured by Promega), and the expression level of transient trehalase protein was analyzed by western blotting with 1/2,000-diluted anti-trehalase antibody (manufactured by Santa Cruz). […] Human pancreatic cancer cells KP4 into which pSF-TREH 3-3 plasmid had been introduced as described above was diluted to one cell or less per well, and applied to a 96-well microplate. They were cultured on DMEM culture medium containing 400 μg/mL of G418 (manufactured by Thermo Fisher Scientific), and clones with stable trehalase expression were selected and amplified. Ten strains of KP4-TREH which were the clones with the highest trehalase expression were chosen for use in the subsequent experiments.
Degradation of 4-trehalosamine and trehalose by cell extract liquids of human pancreatic cancer cells KP4 and 10 strains of KP4-TREH, which are cells with high human trehalase expression, was examined.
Using DMEM culture medium, each of the human pancreatic cancer cells KP4 and the 10 strains of KP4-TREH was amplified in a CO2 incubator at 37° C. until they were confluent. After that, the culture medium was removed and washed with PBS (manufactured by Takara Bio Inc.) three times, and cells were collected with a cell scraper in the PBS. After centrifuging the collected cell suspension at 400×g for 3 minutes and removing supernatant, 135 mM citric acid buffer solution (pH 5.7) containing 0.5% Triton (registered trademark) in an amount 15 times the precipitated cells was added and homogenized. The cells were centrifuged at 21,300×g for 10 minutes and the respective supernatants were collected. Aqueous solution of 4-trehalosamine or aqueous solution of trehalose was added at 20 μg/mL to each supernatant and they were left to stand at 37° C. At 0 hours, 2 hours, 8 hours, or 24 hours from the start of reaction, the reaction solutions were collected, was diluted with methanol to 1/10, and centrifuged at 21,300×g for 10 minutes. The respective supernatants were collected and LC-MS analysis was performed under similar conditions to test example 1 to determine the persistence rates of 4-trehalosamine and trehalose in the reaction solution (4TA C) of 4-trehalosamine and the cell extract liquid of human pancreatic cancer cells KP4, the reaction solution (4TA T) of 4-trehalosamine and the cell extract liquid of 10 strains of KP4-TREH, the reaction solution (TRH C) of trehalose and the cell extract liquid of human pancreatic cancer cells KP4, and the reaction solution (TRH T) of trehalose and the cell extract liquid of 10 strains of KP4-TREH.

Structure (SMILES)	Numbers of live bacterial cells (relative numbers) [1]	degradation by cell extract liquid of 10 strains of KP4-TREH (high human trehalase expression) (human trehalase)	degradation by cell extract liquid of human pancreatic cancer cells KP4 (human trehalase)	protective effect on microorganisms, comparison ([1]; Mycobacterium smegmatis, freeze-dried)
OC[C@H]1O[C@H](O[C@H]2O[C@H](CO)[C@@H](O)[C@H](O)[C@H]2O)[C@H](O)[C@@H](O)[C@@H]1O [trehalose, reference compound]	10	almost disappeared after 8 hours	neither trehalose nor 4-trehalosamine was degraded	–
N[C@H]1[C@H](O)[C@@H](O)[C@@H](O[C@H]2O[C@H](CO)[C@@H](O)[C@H](O)[C@H]2O)O[C@@H]1CO [4-trehalosamine]	100	almost no degradation or decrease	neither trehalose nor 4-trehalosamine was degraded	stronger than when trehalose was added
